Experiments:
Experiment in all cases: Biofilm Eradication with Calgary Biofilm Device
Type in all cases: cell-based
S. aureus = tested on: S. aureus
From the text: (§1) VI. Biofilm Eradication with Calgary Biofilm Device [Innovotech]
(§2) Minimum Inhibitory Concentration (MIC) Breakpoints

S. epidermidis = tested on: S. epidermidis
From the text: as §1, §2

P. aeruginosa = tested on: P. aeruginosa
From the text: as §1, §2
(§3) Minimum Bactericidal Concentration (MBC) Breakpoints
(§4) Minimum Biofilm Eradication Concentration (MBEC) Breakpoints
(§5) Minimum Concentration that Kills Biofilms with Log R of 3 or Higher

MRS. aureus = tested on: MRS. aureus
From the text: as §1, §3, §4, §5

MRS. epidermidis = tested on: MRS. epidermidis
From the text: as §1, §3, §4, §5

Substance: Gentamicin
- Minimum Inhibitory Concentration (MIC) Breakpoints (S. aureus): <8 µg/mL
- Minimum Inhibitory Concentration (MIC) Breakpoints (S. epidermidis): <8 µg/mL
- Minimum Bactericidal Concentration (MBC) Breakpoints (P. aeruginosa; P. aeruginosa): <8 µg/mL
- Minimum Inhibitory Concentration (MIC) Breakpoints (P. aeruginosa; P. aeruginosa): <8 µg/mL
- Minimum Biofilm Eradication Concentration (MBEC) Breakpoints (P. aeruginosa; P. aeruginosa biofilm): >1024 µg/mL
- Minimum Concentration that Kills Biofilms with Log R of 3 or Higher (P. aeruginosa; P. aeruginosa biofilm): 64 ug/mL
- Log 10 Reduction (P. aeruginosa; P. aeruginosa biofilm, at 256 ug/mL, 128 ug/mL and 64 ug/mL): greater than three
- Minimum Bactericidal Concentration (MBC) Breakpoints (MRS. aureus; MRS. aureus): <16 µg/mL
- Minimum Biofilm Eradication Concentration (MBEC) Breakpoints (MRS. aureus; MRS. aureus biofilm): 1024 µg/mL
- Minimum Concentration that Kills Biofilms with Log R of 3 or Higher (MRS. aureus; MRS. aureus biofilm): 1024 ug/mL
- Log 10 Reduction (MRS. aureus; MRS. aureus biofilm, at only 1024 ug/mL): greater than 3
- Minimum Bactericidal Concentration (MBC) Breakpoints (MRS. epidermidis; MRS. epidermidis): <8 µg/mL
- Minimum Biofilm Eradication Concentration (MBEC) Breakpoints (MRS. epidermidis; MRS. epidermidis biofilm): >1024 µg/mL
- Minimum Concentration that Kills Biofilms with Log R of 3 or Higher (MRS. epidermidis; MRS. epidermidis biofilm): >1024 ug/mL
- Log 10 Reduction (MRS. epidermidis; MRS. epidermidis biofilm, at any concentration): ≤ 3

— US8007833B2, “Method of reducing infections and/or air embolisms associated with vascular access procedures” (Biolife, L.L.C., priority 2009, dated 2011)
